Assay results from PMC10244282 (Naunyn-Schmiedeberg's Archives of Pharmacology, 2023).

Columns and labels:
[1] = test system: Langendorff hearts from WT mice; assay: Langendorff perfused hearts from WT mice; set-up: species or system mouse; conditions: data not shown, n = 3
Method: (§1) We followed previously reported methods for the treatment of the animals. This included the removal of the heart and lungs from the thoracic cavity, placing the dissected heart onto a cannula, the use of custom-made equipment, the buffer composition, quantification of the force from the left ventricular apex, digitization of the recordings, and freeze clamping the hearts (Boknik et al. [2019]; Gergs et al. [2019b]).
(§2) Isolated hearts were prepared according to Langendorff (1895).

[2] = target: T1, human 5-HT4 receptor (Homo sapiens, UniProt Q13639); assay: Isolated electrically stimulated (1 Hz) left atrial preparations from 5-HT4-TG mice, organ bath contractility; set-up: species or system human (expressed in cardiomyocytes of transgenic mice)
T1 construct: expressed in transfected cells; host or cells: cardiomyocytes of transgenic mice (alpha-myosin heavy chain promoter); isolated left and right atria and Langendorff-perfused hearts
T1 sequence (Q13639 1-387 isoform Q13639-2): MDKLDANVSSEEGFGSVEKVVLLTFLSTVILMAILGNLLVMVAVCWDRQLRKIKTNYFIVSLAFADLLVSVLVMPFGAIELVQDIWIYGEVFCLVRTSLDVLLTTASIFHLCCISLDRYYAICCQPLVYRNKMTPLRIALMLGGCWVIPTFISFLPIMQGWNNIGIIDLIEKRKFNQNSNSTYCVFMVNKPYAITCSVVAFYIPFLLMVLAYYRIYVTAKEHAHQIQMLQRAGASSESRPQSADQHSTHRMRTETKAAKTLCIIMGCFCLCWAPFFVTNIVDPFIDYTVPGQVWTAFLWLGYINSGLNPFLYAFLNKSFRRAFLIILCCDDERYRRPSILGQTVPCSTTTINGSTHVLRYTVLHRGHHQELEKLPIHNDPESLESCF
Excerpt: (§3) A mouse with cardiomyocyte-specific expression of the human 5-HT4(a) receptor has been generated in our laboratory (Gergs et al. [2010]). The cardiac myocyte-specific expression was achieved by the use of the α-myosin heavy chain promoter. The age of the animals studied in the atrial contraction experiments was around 4 months. Both genders were studied. All mice were housed under conditions of optimum light, temperature, and humidity with food and water provided ad libitum. The investigation conformed to the Guide for the Care and Use of Laboratory Animals as published by the National Research Council (2011). The animals were handled and maintained according to the approved protocols of the Animal Welfare Committee of the University of Halle-Wittenberg, Halle, Germany.
(§4) In brief, the right or left atrial preparations from the mice were isolated and mounted in organ baths as previously described (Gergs et al. [2013]; Neumann et al. [2003]). […] The solution was continuously gassed with 95% O2 and 5% CO2 and maintained at 37 °C and pH 7.4 (Kirchhefer et al. [2004]; Neumann et al. [1998], [2003]). Spontaneously beating right atrial preparations from mice were used to study any chronotropic effects.
(§5) The drug application was as follows.

[3] = test system: atrial preparations from WT mice; assay: Isolated left and right atrial preparations from wild-type (WT) littermates; set-up: species or system mouse; conditions: for effect on beating rate in WT right atrium: spontaneously beating right atrium
Method: as §4, §5

[4] = target: porcine 5-HT4 receptors; set-up: method as in Medhurst and Kaumann [1993]; conditions: isolated right atrial preparations of pigs; ref Medhurst and Kaumann [1993]; cited from earlier work
[5] = target: T1, human 5-HT4 receptor; assay: Spontaneously beating right atrial preparations from 5-HT4-TG mice, beating rate; set-up: species or system human (expressed in cardiomyocytes of transgenic mice); conditions: right atrium of 5-HT4-TG; for Beating rate: 5-HT 1 µM; for Beating rate / Beating rate in % of 1 µM 5-HT: bufotenin 3 µM, tryptamine 100 µM
Excerpt: as §3, §4, §5

[6] = target: T2, human cardiac 5-HT4 receptors (Homo sapiens, UniProt Q13639); assay: Isolated electrically stimulated (1 Hz) human right atrial preparations, contractility
T2 construct: from tissue; host or cells: human right atrial preparations (musculi pectinati) from male bypass-surgery patients
T2 sequence (Q13639 whole entry): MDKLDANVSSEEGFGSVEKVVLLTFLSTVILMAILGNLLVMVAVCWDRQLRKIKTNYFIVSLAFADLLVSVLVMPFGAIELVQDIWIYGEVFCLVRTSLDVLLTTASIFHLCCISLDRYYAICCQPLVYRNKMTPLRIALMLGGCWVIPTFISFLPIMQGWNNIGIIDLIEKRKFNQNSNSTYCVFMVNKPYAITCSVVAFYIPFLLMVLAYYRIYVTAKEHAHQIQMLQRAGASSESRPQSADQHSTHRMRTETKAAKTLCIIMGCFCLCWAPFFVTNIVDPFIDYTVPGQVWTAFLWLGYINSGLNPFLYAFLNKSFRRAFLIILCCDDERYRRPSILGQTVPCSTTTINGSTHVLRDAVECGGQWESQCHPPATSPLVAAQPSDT
Excerpt: The contractile studies on human right atrial preparations were done using the same setup and buffer as used in the mouse studies (see “Contractile studies in mice” section). The samples were obtained from male patients that underwent a bypass surgery (Table 1). Drug therapy included β-receptor blockers, calcium channel blockers, angiotensin-converting enzyme inhibitors/angiotensin receptor blockers, diuretics, direct oral anti-coagulants, metformin, statins, and acetyl salicylic acid. Our methods used for atrial contraction studies in human samples have been previously published and were not altered in this study (Boknik et al. [2019]; Gergs et al. [2009], [2017b], [2018]). This study complies with the Declaration of Helsinki and has been approved by the local ethics committee (hm-bü 04.08.2005) and all patients gave informed consent.

[7] = test system: phosphorylation state of phospholamban (serine 16); assay: Western blot of serine 16 phosphorylation of phospholamban in cardiac preparations of 5-HT4-TG mice; conditions: 1 µM
[8] = test system: phosphorylation state of phospholamban (serine 16); assay: Western blot of serine 16 phosphorylation of phospholamban in human right atrial preparations; conditions: electrically stimulated human right atrial preparations
Excerpt: This is seen in the original tracings (Fig. 7A). […] Calsequestrin was monitored as a loading control in these gels. […] The mouse samples are shown for comparison.

[9] = set-up: method as in Ott [2001]; conditions: humans, ref Ott [2001], cited from earlier work
[10] = test system: phosphorylation state of phospholamban (serine 16); assay: Western blot of serine 16 phosphorylation of phospholamban in cardiac preparations of WT mice; conditions: 1 µM; Langendorff hearts from WT
[11] = target: T1, human 5-HT4 receptor; assay: Langendorff perfused hearts from 5-HT4-TG mice; set-up: species or system human (expressed in cardiomyocytes of transgenic mice); conditions: 1 µM, n = 5, p < 0.05
Method: as §1, §2

[12] = test system: MAO A; set-up: method as in Fisar et al. [2010]; conditions: in vitro, irreversible; ref Fisar et al. [2010]; read-out: IC50 (half inhibitory concentration) MAO A; cited from earlier work
[13] = test system: MAO B; set-up: method as in Fisar et al. [2010]; conditions: in vitro, irreversible; ref Fisar et al. [2010]; read-out: IC50 (half inhibitory concentration) MAO B; cited from earlier work
[14] = left atrium of 5-HT4-TG, 5-HT 1 µM, bufotenin 3 µM, tryptamine 100 µM
[15] = left atrium of 5-HT4-TG, bufotenin 3 µM, tryptamine 100 µM
[16] = pD2 (negative decadic logarithm of EC50), force of contraction, left atrium of 5-HT4-TG
[17] = pD2, dF/dtmax, left atrium of 5-HT4-TG
[18] = pD2, dF/dtmin, left atrium of 5-HT4-TG
[19] = pD2, time of relaxation (TR), left atrium of 5-HT4-TG
[20] = pD2, time to peak (TTP), left atrium of 5-HT4-TG

Compound	effect in Langendorff hearts from WT mice [1]	Force [2, 14] [mN]	TTP [2, 14] [ms]	dF/dtmax [2, 14] [mN/s]	Force in % of 1 µM 5-HT [2, 15]	TR in % of 1 µM 5-HT [2, 15]	TTP in % of 1 µM 5-HT [2, 15]	dF/dtmax in % of 1 µM 5-HT [2, 15]	dF/dtmin in % of 1 µM 5-HT [2, 15]	EC50 [2, 16] [µM]	EC50 [2, 17] [µM]	EC50 [2, 18] [µM]	EC50 [2, 19] [µM]	EC50 [2, 20] [µM]	effect on beating rate in WT right atrium [3]	pD2, beating rate [4]	Beating rate [5] [bpm]	Beating rate in % of 1 µM 5-HT [5]	other results
NCCc1c[nH]c2ccccc12 [Tryptamine, tryptamine]	inactive	5.74 ± 0.84	13.28 ± 0.07	393.56 ± 52.26	81% ± 7%	97% ± 2%	94% ± 1%	78% ± 5%	82% ± 4%	26.9	18.6	18.6	2.88	6.61	not from WT	4.87	388 ± 41	105% ± 5%	agonist efficacy on 5-HT4 receptors compared to 5-HT ([2]; 5-HT4-TG atrial preparations): partial agonist; efficacy to increase force of contraction and beating rate compared with isoproterenol ([2]; 5-HT4-TG, 1 µM isoproterenol given after): less effective than isoproterenol; TR [2, 14]: 27.61 ± 1.25 ms; EC50 ([5]; read-out: pD2, beating rate (converted)): 5.37 µM
CN1[C@@H]2CC[C@H]1C[C@@H](OC(=O)c1c[nH]c3ccccc13)C2 [Tropisetron, tropisetron]																			antagonism of the positive inotropic effect of bufotenin ([6]; tropisetron 10 µM additionally applied): revoked the positive inotropic effect of bufotenin
CN(C)CCc1c[nH]c2ccc(O)cc12 [Bufotenin, 5-hydroxy-N,N-dimethyl-tryptamine]	inactive	6.45 ± 0.75	12.84 ± 0.15	440.7 ± 61.25	91% ± 5%	103% ± 2%	98% ± 0%	87% ± 6%	88% ± 6%	0.17	0.126	0.12	0.49	0.355	not WT	5.95	396 ± 35	107% ± 7%	phosphorylation state of phospholamban on serine 16 in isolated hearts ([7]; Langendorff hearts from 5-HT4-TG): increased; phosphorylation state of phospholamban on serine 16 in atria ([7]; atria of 5-HT4-TG): increased; inotropic effect in isolated paced human atrial trabeculae ([6]; 0.1–10 µM, 1 Hz): concentration- and time-dependent positive inotropic effects; phosphorylation state of phospholamban [8]: increased; parenteral dose needed to bring about hallucinogenic effects ([9]; parenteral): 10 mg; per-oral dose needed to bring about hallucinogenic effects ([9]; per-oral): 100 mg; change of the effects in left and right atrium by 50 µM pargyline ([2]; left and right atrium of 5-HT4-TG, 50 µM pargyline): shifted to the left; phosphorylation state of phospholamban on serine 16 in isolated hearts [10]: not WT; positive inotropic effect in WT left atrial preparations ([3]; electrically stimulated (1 Hz) left atrium): no effects; force of contraction after drug ([11]; increased from 9.74 ± 1.51 mN): 15.6 ± 1.42 mN; rate of relaxation after drug ([11]; increased from 227 ± 43 mN/s): 515 ± 43 mN/s; rate of force development after drug ([11]; increased from 315 ± 57 mN/s): 653 ± 86 mN/s; EC50 ([5]; pD2, beating rate): 0.0912 µM
